Like-named read-outs stand apart in the source and are kept apart here. One block for each compound: values may come before it.
Experiments:
[1] = Stability in simulated intestinal fluid; assay type: in vitro ADME
Description: Studies were carried out in simulated intestinal fluid (SIF). SIF was prepared by dissolving 6.8 g of KH2PO4 in 250 mL of water, mixing, and then adding 77 mL of 0.2 N NaOH and […] of water. […] DMSO stocks were first prepared for the test articles. […] The vials were kept in a benchtop Thermomixer® for the duration of the experiment. A separate tube was dosed for each time point in each matrix. […] Samples were mixed and then immediately stored at 4° C. until the end of the experiment. After the final time point was sampled, the plate was mixed and then centrifuged at 3000 rpm for 10 minutes.

[2] = rat
[3] = Hydrolysis of prodrugs to treprostinil at pH 6, 7, 8 and 40 C; assay type: physicochemical
Description: Tables 24, 25 and 26 present data for hydrolysis of selected treprostinil prodrugs at pH 6, 7 and 8, respectively, and 40 C.

[4] = dog
[5] = biological target: T1, PGE2 receptor 1 (EP1) (Homo sapiens, UniProt P34995); test: EP1 receptor calcium agonist assay (HEK293T cells); assay type: cell-based; conditions: Table 22, relative to treprostinil EC50 values, * partial agonists or ambiguous dose-response curves
T1 sequence (P34995 1-402): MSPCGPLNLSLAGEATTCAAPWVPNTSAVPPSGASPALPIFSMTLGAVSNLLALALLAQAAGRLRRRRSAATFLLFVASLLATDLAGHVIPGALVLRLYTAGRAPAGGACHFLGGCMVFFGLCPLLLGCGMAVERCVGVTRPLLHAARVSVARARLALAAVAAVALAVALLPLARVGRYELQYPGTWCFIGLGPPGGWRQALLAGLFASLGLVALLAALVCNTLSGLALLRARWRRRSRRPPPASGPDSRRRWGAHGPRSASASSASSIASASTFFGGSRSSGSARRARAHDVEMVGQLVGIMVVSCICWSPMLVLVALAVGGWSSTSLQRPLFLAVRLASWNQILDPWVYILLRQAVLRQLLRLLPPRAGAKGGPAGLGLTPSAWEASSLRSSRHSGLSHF
Description: Calcium assay kit: Multiscreen™ Calcium 1.0 No Wash Kit (Multispan, Inc., Cat #MSCA01-1)
• EP1 Calcium and DP1 cAMP Assays: HBSS plus 20 mM HEPES • EP2 and IP1 cAMP Assays: 1 mM IBMX in HBSS plus 20 mM HEPES Instruments: FlexStation III (Molecular Devices) and FLIPR 384 (Molecular Devices)
Cells were thawed from frozen cells and resuspended in assay buffer at desired concentrations. cAMP or Calcium assays were performed according to the manufacturer's protocol using Multiscreen™ TR-FRET cAMP 1.0 No Wash Assay Kit or Multiscreen™ Calcium 1.0 No Wash Kit.
Calcium Assay: Cells were seeded in a 384-well plate at an appropriate density. The calcium assay was conducted according to the manufacturer's protocols (Multiscreen Calcium 1.0 No Wash Assay Kit). The calcium dye loading buffer was added to the cells and incubated for 1 hour at 37° C. For agonist mode, cells were injected with Iloprost control agonist or test compound by FLIPR and calcium mobilization was monitored for 180 seconds with compound injected into the wells at the 19th second. Fluorescent emissions were read at 525 nm with excitation at 490 nm in a FLIPR 384 instrument (Molecular Devices).
Calcium Assay: Calcium assay results are expressed as “RFU” as defined in figure below. Data are represented in Mean±SEM. Dose-response curves were fitted using “Sigmoidal dose-response (variable slope)” function in GraphPad Prism 6. EC50 values were calculated based on the fitted curves.
Prostaglandin receptor activity assessments with treprostinil and treprostinil analogues have been conducted, and a historical, positive control agonist for these receptors, iloprost (for IP, EP2 and EP1) or PGD2 (for DP1), was also included. These studies used cell lines overexpressing either human IP, EP2 or DP1, or EP1 receptors, and following incubation with varying concentrations of compounds, cAMP levels were measured using Fluorescence Resonance Energy Transfer (FRET). The 665/620 (acceptor/donor emission signals) ratio is inversely proportional to the concentration of cAMP.

[6] = Plasma stability, human plasma; assay type: in vitro ADME
Description: (§1) Studies were carried out in mixed-gender human plasma male Sprague-Dawley rat plasma, and male Beagle dog plasma. All plasma was obtained from Bioreclamation and collected on K2EDTA. Plasma was adjusted to pH 7.4 prior to initiating the experiments. DMSO stocks were first prepared for the test articles. […] The vials were kept in a benchtop Thermomixer® for the duration of the experiment. […] Samples were stored at 4° C. until the end of the experiment. After the final time point was sampled, the plate was mixed and then centrifuged at 3000 rpm for 10 minutes.

[7] = Plasma stability, dog plasma; assay type: in vitro ADME, Beagle dog
Description: as §1

[8] = Plasma stability, rat plasma; assay type: in vitro ADME, Sprague-Dawley rat
Description: as §1

[9] = SIF pH 6.8 with pancreatin, 1 μM, 37° C.
[10] = SIF pH 6.8 with pancreatin, 1 μM, 37° C., 0 min
[11] = SIF pH 6.8 with pancreatin, 1 μM, 37° C., 15 min
[12] = SIF pH 6.8 with pancreatin, 1 μM, 37° C., 60 min
[13] = SIF pH 6.8 with pancreatin, 1 μM, 37° C., 120 min

EP1 Relative to Tre [5]: 20x*
Compound: CCCCCC(CCC1C(O)CC2Cc3c(cccc3OCC(=O)O)CC21)OC(C)=O (stereo not drawn) [Prodrug XLIII]

EP1 Relative to Tre [5]: 122x*
Compound: CCCCCC(CCC1C(O)CC2Cc3c(cccc3OCC(=O)O)CC21)OC(=O)CC (stereo not drawn) [Prodrug LV]

The next lines start with the compound.

Compound: CCCCCC(CCC1C(OC(=O)OC)CC2Cc3c(cccc3OCC(=O)O)CC21)OC(=O)OC (stereo not drawn) [Prodrug LXXI, treprostinil dicarbonate]
Half-life [1, 9]: >2 h
Percent Remaining 0 min [1, 10]: 100%
Percent Remaining 15 min [1, 11]: 96.2%
Percent Remaining 30 min ([1]; SIF pH 6.8 with pancreatin, 1 μM, 37° C., 30 min): 100%
Percent Remaining 60 min [1, 12]: 91.9%
Percent Remaining 120 min [1, 13]: 83.5%
AUC [2]: 33.51 µmol·min/L
Hydrolysis to treprostinil, % Area, t = 1 week ([3]; pH 6, 40 C.): 0.00 % Area
Hydrolysis to treprostinil, % Area, t = 2 weeks ([3]; pH 6, 40 C.): 0.00 % Area
Hydrolysis to treprostinil, % Area, t = 3 weeks ([3]; pH 6, 40 C.): 0.00 % Area
Hydrolysis to treprostinil, % Area, t = 1 week ([3]; pH 7, 40 C.): 0.00 % Area
Hydrolysis to treprostinil, % Area, t = 2 weeks ([3]; pH 7, 40 C.): 0.00 % Area
Hydrolysis to treprostinil, % Area, t = 3 weeks ([3]; pH 7, 40 C.): 0.00 % Area
Hydrolysis to treprostinil, % Area, t = 1 week ([3]; pH 8, 40 C.): 0.00 % Area
Hydrolysis to treprostinil, % Area, t = 2 weeks ([3]; pH 8, 40 C.): 0.00 % Area
Hydrolysis to treprostinil, % Area, t = 3 weeks ([3]; pH 8, 40 C.): 0.38 % Area
AUC [4]: 56.21 µmol·min/L

Compound: CCCCCC(CCC1C(O)CC2Cc3c(cccc3OCC(=O)O)CC21)OP(=O)(O)O (stereo not drawn) [Prodrug VI]
EP1 Relative to Tre [5]: 5x
EP1 Relative to Tre ([5]; listed as Prodrug VI repeat): 42x

Compound: treprostinil diacetate [Prodrug LXXII]
Half-life [1, 9]: >2 h
Percent Remaining 0 min [1, 10]: 100%
Percent Remaining 15 min [1, 11]: 111%
Percent Remaining 60 min [1, 12]: 108%
Percent Remaining 120 min [1, 13]: 109%
Formation of Treprostinil, Concentration 0 min ([1]; SIF, prodrug dosed 1 μM, 0 min): 0 µM
Formation of Treprostinil, Concentration 15 min ([1]; SIF, prodrug dosed 1 μM, 15 min): 0 µM
Formation of Treprostinil, Concentration 30 min ([1]; SIF, prodrug dosed 1 μM, 30 min): 0 µM
Formation of Treprostinil, Concentration 60 min ([1]; SIF, prodrug dosed 1 μM, 60 min): 0 µM
Formation of Treprostinil, Concentration 120 min ([1]; SIF, prodrug dosed 1 μM, 120 min): 0.0126 µM
Half-life ([6]; 1 μM, 37° C.): >2 h
Percent Remaining 0 min ([6]; 1 μM, 37° C., 0 min): 100%
Percent Remaining 15 min ([6]; 1 μM, 37° C., 15 min): 106%
Percent Remaining 60 min ([6]; 1 μM, 37° C., 60 min): 102%
Percent Remaining 120 min ([6]; 1 μM, 37° C., 120 min): 86.5%
Formation of Treprostinil, Concentration 0 min ([6]; prodrug dosed 1 μM, 0 min): 0 µM
Formation of Treprostinil, Concentration 15 min ([6]; prodrug dosed 1 μM, 15 min): 0 µM
Formation of Treprostinil, Concentration 30 min ([6]; prodrug dosed 1 μM, 30 min): 0 µM
Formation of Treprostinil, Concentration 60 min ([6]; prodrug dosed 1 μM, 60 min): 0 µM
Formation of Treprostinil, Concentration 120 min ([6]; prodrug dosed 1 μM, 120 min): 0 µM
Half-life ([7]; 1 μM, 37° C.): >2 h
Percent Remaining 0 min ([7]; 1 μM, 37° C., 0 min): 100%
Percent Remaining 15 min ([7]; 1 μM, 37° C., 15 min): 96.7%
Percent Remaining 60 min ([7]; 1 μM, 37° C., 60 min): 107%
Percent Remaining 120 min ([7]; 1 μM, 37° C., 120 min): 82.9%
Formation of Treprostinil, Concentration 0 min ([7]; prodrug dosed 1 μM, 0 min): 0 µM
Formation of Treprostinil, Concentration 15 min ([7]; prodrug dosed 1 μM, 15 min): 0 µM
Formation of Treprostinil, Concentration 30 min ([7]; prodrug dosed 1 μM, 30 min): 0 µM
Formation of Treprostinil, Concentration 60 min ([7]; prodrug dosed 1 μM, 60 min): 0 µM
Formation of Treprostinil, Concentration 120 min ([7]; prodrug dosed 1 μM, 120 min): 0 µM
AUC [2]: 10.02 µmol·min/L
Hydrolysis to treprostinil, % Area, t = 1 week ([3]; pH 6, 40 C.): 0.00 % Area
Hydrolysis to treprostinil, % Area, t = 2 weeks ([3]; pH 6, 40 C.): 0.00 % Area
Hydrolysis to treprostinil, % Area, t = 3 weeks ([3]; pH 6, 40 C.): 0.00 % Area
Hydrolysis to treprostinil, % Area, t = 1 week ([3]; pH 7, 40 C.): 0.00 % Area
Hydrolysis to treprostinil, % Area, t = 2 weeks ([3]; pH 7, 40 C.): 0.00 % Area
Hydrolysis to treprostinil, % Area, t = 3 weeks ([3]; pH 7, 40 C.): 0.00 % Area
Hydrolysis to treprostinil, % Area, t = 1 week ([3]; pH 8, 40 C.): 0.00 % Area
Hydrolysis to treprostinil, % Area, t = 2 weeks ([3]; pH 8, 40 C.): 0.00 % Area
Hydrolysis to treprostinil, % Area, t = 3 weeks ([3]; pH 8, 40 C.): 0.00 % Area
AUC [4]: 60.91 µmol·min/L
Half-life ([8]; 1 μM, 37° C.): >2 h
Percent Remaining 0 min ([8]; 1 μM, 37° C., 0 min): 100%
Percent Remaining 15 min ([8]; 1 μM, 37° C., 15 min): 107%
Percent Remaining 60 min ([8]; 1 μM, 37° C., 60 min): 83.6%
Percent Remaining 120 min ([8]; 1 μM, 37° C., 120 min): 79.7%
Formation of Treprostinil, Concentration 0 min ([8]; prodrug dosed 1 μM, 0 min): 0 µM
Formation of Treprostinil, Concentration 15 min ([8]; prodrug dosed 1 μM, 15 min): 0 µM
Formation of Treprostinil, Concentration 30 min ([8]; prodrug dosed 1 μM, 30 min): 0 µM
Formation of Treprostinil, Concentration 60 min ([8]; prodrug dosed 1 μM, 60 min): 0.00595 µM
Formation of Treprostinil, Concentration 120 min ([8]; prodrug dosed 1 μM, 120 min): 0.0151 µM
